In patent US7074789B2, “Kinase inhibitors” (Amgen Inc., priority 1999, dated 2006):

What was measured:
Type in all cases: biochemical
Lck = target: T1, Lck (Homo sapiens, UniProt P06239); experiment: Kinase inhibition assay (33P transfer), Lck; settings: read-out: Lck-1
T1 construct: Kinases are expressed as either kinase domains or full length constructs; made in house
Method in brief: (§1)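 33P-ATP transfer to coated synthetic polymer substrates; acid wash (0.5% H3PO4), scintillant, liquid scintillation count. Enzymes: His- or GST-fusion kinases from E. coli or High Five insect cells.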

Lyn = target: T2, Lyn (Homo sapiens, UniProt P07948); experiment: Kinase inhibition assay (33P transfer), Lyn; settings: Table 6, Lyn-1 kinase inhibition class
T2 construct: Kinases are expressed as either kinase domains or full length constructs; made in house
Method in brief: (§2)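 Activity read as 33P incorporation from ATP into poly(Glu,Tyr) 4:1 or poly(Arg,Ser) 3:1 substrate bound to microtiter plates, measured by scintillation after acid washing. Enzymes were affinity-purified GST or polyHis fusions (kinase domain or full length) from E. coli or baculovirus; IC50 = 50% reduction in labelled phosphate.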

Src = target: T3, Src (Homo sapiens, UniProt P12931); experiment: Kinase inhibition assay (33P transfer), Src; settings: Table 6, Src-1 kinase inhibition class
T3 construct: Kinases are expressed as either kinase domains or full length constructs; made in house
Method in brief: as §2

Fyn = target: T4, Fyn (Homo sapiens, UniProt P06241); experiment: Kinase inhibition assay (33P transfer), Fyn; settings: read-out: Fyn-1
T4 construct: Kinases are expressed as either kinase domains or full length constructs; made in house
T4 sequence (P06241 whole entry, species assumed, the tested form may be a part): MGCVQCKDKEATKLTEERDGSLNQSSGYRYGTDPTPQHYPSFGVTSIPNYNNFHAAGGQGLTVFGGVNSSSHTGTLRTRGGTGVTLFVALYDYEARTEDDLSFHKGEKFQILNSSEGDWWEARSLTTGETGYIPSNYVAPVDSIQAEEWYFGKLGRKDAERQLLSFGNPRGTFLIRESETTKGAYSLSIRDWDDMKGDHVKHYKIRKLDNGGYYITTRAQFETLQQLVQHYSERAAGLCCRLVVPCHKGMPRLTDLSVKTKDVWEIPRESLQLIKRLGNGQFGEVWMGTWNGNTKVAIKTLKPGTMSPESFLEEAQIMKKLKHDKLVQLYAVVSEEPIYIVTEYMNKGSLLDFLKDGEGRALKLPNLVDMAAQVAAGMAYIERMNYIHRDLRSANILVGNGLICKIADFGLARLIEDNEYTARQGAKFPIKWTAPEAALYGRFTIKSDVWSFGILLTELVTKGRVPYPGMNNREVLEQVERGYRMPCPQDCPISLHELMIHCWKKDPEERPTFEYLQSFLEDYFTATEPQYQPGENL
Method in brief: as §2

Zap-70 = target: T5, Zap-70 (Homo sapiens, UniProt P43403); experiment: Kinase inhibition assay (33P transfer), Zap-70; settings: read-out: Zap-1
T5 construct: Kinases are expressed as either kinase domains or full length constructs; made in house
T5 sequence (P43403 1-619): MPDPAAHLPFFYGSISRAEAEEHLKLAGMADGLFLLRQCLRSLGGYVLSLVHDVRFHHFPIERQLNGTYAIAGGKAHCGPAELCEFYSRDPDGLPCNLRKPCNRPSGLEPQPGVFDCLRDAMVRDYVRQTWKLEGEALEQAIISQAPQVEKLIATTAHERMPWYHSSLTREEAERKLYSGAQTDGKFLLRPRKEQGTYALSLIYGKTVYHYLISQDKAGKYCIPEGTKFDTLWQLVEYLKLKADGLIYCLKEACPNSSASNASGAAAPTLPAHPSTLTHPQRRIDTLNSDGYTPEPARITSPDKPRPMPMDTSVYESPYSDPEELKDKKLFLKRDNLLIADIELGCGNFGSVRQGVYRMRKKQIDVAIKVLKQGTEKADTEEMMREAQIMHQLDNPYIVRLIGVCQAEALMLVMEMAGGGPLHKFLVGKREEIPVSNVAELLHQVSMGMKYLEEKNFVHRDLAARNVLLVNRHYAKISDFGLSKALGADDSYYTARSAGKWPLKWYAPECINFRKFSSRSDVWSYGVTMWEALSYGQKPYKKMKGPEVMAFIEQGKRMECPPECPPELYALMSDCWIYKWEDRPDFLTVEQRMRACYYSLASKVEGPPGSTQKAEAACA
Method in brief: as §1

Itk = target: T6, Itk (Homo sapiens, UniProt Q08881); experiment: Kinase inhibition assay (33P transfer), Itk; settings: read-out: Itk-1
T6 construct: Kinases are expressed as either kinase domains or full length constructs; made in house
T6 sequence (Q08881 1-620): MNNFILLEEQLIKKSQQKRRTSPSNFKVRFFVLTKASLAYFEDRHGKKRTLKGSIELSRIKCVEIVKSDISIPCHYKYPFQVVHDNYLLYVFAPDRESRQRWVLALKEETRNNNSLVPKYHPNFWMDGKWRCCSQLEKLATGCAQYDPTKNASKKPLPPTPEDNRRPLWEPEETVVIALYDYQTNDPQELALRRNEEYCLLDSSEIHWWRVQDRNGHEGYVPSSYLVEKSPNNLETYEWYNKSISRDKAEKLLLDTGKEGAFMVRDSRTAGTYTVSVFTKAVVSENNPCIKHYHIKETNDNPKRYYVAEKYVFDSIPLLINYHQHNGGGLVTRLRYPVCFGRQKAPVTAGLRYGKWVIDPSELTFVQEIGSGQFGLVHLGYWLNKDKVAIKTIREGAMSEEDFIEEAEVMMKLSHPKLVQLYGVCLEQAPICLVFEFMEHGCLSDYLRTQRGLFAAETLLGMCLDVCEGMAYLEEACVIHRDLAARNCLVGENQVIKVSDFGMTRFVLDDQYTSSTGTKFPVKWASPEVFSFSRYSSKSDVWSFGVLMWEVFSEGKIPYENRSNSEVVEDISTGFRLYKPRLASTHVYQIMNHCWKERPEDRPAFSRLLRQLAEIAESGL
Method in brief: as §2

EGFR = target: T7, EGFR (Homo sapiens, UniProt P00533); experiment: Kinase inhibition assay (33P transfer), EGFR; settings: Table 2, kinase inhibition class; read-out: EGFR-1
T7 construct: Kinases are expressed as either kinase domains or full length constructs; made in house
Method in brief: as §2

ErbB2 = target: T8, ErbB2 (Homo sapiens, UniProt P04626); experiment: Kinase inhibition assay (33P transfer), ErbB2; settings: read-out: ErbB2-2
T8 construct: Kinases are expressed as either kinase domains or full length constructs; made in house
T8 sequence (P04626 23-1255, species assumed): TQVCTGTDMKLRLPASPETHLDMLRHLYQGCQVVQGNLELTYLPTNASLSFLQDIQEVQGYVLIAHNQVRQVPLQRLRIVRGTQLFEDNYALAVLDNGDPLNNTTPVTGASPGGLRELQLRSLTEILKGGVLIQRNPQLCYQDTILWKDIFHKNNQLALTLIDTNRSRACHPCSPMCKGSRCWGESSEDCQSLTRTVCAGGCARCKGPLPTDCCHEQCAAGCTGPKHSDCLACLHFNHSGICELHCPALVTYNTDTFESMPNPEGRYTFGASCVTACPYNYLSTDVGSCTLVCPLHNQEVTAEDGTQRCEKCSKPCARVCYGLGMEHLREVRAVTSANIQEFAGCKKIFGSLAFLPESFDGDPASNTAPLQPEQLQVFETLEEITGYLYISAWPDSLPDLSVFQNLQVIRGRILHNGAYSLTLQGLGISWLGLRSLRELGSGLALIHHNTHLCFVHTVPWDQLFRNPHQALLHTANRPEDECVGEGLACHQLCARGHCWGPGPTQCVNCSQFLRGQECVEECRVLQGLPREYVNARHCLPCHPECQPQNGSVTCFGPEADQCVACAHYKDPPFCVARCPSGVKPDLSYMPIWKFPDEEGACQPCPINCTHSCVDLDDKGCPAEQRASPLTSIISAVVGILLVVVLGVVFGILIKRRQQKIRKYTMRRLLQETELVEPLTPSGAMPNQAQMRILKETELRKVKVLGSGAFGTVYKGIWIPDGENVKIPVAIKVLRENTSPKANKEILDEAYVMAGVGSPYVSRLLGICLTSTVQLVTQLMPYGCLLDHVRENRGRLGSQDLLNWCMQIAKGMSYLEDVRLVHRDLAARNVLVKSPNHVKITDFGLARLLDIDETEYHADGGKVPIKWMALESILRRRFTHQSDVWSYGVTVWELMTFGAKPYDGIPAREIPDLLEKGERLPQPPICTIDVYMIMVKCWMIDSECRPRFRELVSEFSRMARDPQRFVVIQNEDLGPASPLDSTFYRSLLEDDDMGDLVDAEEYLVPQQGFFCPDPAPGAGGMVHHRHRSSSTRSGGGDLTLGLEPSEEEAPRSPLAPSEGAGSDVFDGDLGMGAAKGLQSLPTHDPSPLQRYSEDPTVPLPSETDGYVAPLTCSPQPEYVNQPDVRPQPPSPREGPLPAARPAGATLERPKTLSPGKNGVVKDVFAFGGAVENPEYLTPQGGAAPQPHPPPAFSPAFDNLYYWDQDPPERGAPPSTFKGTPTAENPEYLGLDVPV
Method in brief: as §2

Kdr = target: T9, Kdr (Homo sapiens, UniProt P35968); experiment: Kinase inhibition assay (33P transfer), Kdr; settings: read-out: KDR-1
T9 construct: Kinases are expressed as either kinase domains or full length constructs; made in house
Method in brief: as §1

Flt-1 = target: T10, Flt-1 (Homo sapiens, UniProt P17948); experiment: Kinase inhibition assay (33P transfer), Flt-1
T10 construct: Kinases are expressed as either kinase domains or full length constructs; made in house
Method in brief: as §2

Tek = target: T11, Tek (Homo sapiens, UniProt Q02763); experiment: Kinase inhibition assay (33P transfer), Tek; settings: read-out: Tek-1
T11 construct: Kinases are expressed as either kinase domains or full length constructs; made in house
Method in brief: as §2

c-Met = target: T12, c-Met (Homo sapiens, UniProt P08581); experiment: Kinase inhibition assay (33P transfer), c-Met; settings: Table 2, kinase inhibition class; read-out: Met-1
T12 construct: Kinases are expressed as either kinase domains or full length constructs; made in house
Method in brief: as §2

AKT = target: T13, AKT (Homo sapiens, UniProt Q9Y243); experiment: Kinase inhibition assay (33P transfer), AKT; settings: Table 2, kinase inhibition class; read-out: AKT3-1
T13 construct: Kinases are expressed as either kinase domains or full length constructs; made in house
T13 sequence (Q9Y243 whole entry, the tested form may be a part): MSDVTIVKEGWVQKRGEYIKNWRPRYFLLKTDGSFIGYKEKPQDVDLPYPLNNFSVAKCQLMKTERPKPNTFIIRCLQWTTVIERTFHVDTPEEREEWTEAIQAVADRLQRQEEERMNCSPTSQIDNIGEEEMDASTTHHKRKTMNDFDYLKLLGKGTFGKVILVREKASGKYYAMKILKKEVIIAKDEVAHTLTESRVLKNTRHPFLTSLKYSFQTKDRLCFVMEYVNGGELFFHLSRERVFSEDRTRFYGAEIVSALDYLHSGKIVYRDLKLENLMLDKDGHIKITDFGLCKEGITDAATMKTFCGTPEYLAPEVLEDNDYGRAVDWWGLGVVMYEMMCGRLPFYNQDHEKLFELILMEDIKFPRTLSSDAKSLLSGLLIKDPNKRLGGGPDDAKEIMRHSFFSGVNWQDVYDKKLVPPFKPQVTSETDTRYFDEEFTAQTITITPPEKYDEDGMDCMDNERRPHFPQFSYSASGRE
Method in brief: as §1

IGFR-1 = target: T14, IGFR-1 (Homo sapiens, UniProt P08069); experiment: Kinase inhibition assay, IGFR-1 (Table 2); settings: Table 2, kinase inhibition class
T14 construct: Kinases are expressed as either kinase domains or full length constructs; made in house

PDGFRB = target: T15, PDGFRB (Homo sapiens, UniProt P09619); experiment: Kinase inhibition assay (33P transfer), PDGFRB; settings: read-out: PDGFRB-1
T15 construct: Kinases are expressed as either kinase domains or full length constructs; made in house
T15 sequence (P09619 33-1106, species assumed): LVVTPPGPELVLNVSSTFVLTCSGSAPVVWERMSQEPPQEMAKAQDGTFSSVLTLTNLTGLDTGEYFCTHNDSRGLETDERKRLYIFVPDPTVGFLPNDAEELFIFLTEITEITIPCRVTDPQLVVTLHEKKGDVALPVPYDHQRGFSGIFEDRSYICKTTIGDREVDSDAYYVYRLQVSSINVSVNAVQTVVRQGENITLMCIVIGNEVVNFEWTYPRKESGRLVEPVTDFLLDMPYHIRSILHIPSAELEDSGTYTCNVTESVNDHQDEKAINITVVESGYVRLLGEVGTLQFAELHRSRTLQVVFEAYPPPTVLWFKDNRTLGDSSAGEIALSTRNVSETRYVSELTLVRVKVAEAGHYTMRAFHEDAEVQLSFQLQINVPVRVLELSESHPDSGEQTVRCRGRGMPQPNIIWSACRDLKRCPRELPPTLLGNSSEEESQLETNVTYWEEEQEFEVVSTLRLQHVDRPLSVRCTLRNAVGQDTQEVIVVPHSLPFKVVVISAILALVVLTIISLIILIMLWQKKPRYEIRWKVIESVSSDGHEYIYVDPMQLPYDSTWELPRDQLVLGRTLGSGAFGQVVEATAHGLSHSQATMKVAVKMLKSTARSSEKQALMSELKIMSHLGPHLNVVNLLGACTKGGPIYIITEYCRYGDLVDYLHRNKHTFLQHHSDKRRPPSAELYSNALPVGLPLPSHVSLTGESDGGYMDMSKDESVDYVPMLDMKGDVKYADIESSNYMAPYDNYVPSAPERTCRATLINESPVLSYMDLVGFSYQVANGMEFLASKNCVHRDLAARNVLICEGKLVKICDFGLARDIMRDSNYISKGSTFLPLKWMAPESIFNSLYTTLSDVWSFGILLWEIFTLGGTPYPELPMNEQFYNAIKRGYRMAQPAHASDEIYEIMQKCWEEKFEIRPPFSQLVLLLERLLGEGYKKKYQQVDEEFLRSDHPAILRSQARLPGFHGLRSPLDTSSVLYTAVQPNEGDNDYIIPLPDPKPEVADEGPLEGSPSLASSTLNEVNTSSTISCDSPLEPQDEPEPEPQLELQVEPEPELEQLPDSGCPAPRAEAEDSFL

Hck-1 = target: T16, Hck-1 (Homo sapiens, UniProt P08631); experiment: Kinase inhibition assay (33P transfer), Hck; settings: Table 6, Hck-1 kinase inhibition class
T16 construct: Kinases are expressed as either kinase domains or full length constructs; made in house

ErbB4 = target: T17, ErbB4 (Homo sapiens, UniProt Q15303); experiment: Kinase inhibition assay (33P transfer), ErbB4; settings: read-out: ErbB4-1
T17 construct: Kinases are expressed as either kinase domains or full length constructs; made in house

Ret-1 = target: T18, Ret-1 (Homo sapiens, UniProt P07949); experiment: Kinase inhibition assay (33P transfer), Ret; settings: Table 6, Ret-1 kinase inhibition class
T18 construct: Kinases are expressed as either kinase domains or full length constructs; made in house

FGFR1 = target: T19, FGFR1 (Homo sapiens, UniProt P11362); experiment: Kinase inhibition assay (33P transfer), FGFR1; settings: read-out: FGFR1-1
T19 construct: Kinases are expressed as either kinase domains or full length constructs; made in house
T19 sequence (P11362 22-822, species assumed): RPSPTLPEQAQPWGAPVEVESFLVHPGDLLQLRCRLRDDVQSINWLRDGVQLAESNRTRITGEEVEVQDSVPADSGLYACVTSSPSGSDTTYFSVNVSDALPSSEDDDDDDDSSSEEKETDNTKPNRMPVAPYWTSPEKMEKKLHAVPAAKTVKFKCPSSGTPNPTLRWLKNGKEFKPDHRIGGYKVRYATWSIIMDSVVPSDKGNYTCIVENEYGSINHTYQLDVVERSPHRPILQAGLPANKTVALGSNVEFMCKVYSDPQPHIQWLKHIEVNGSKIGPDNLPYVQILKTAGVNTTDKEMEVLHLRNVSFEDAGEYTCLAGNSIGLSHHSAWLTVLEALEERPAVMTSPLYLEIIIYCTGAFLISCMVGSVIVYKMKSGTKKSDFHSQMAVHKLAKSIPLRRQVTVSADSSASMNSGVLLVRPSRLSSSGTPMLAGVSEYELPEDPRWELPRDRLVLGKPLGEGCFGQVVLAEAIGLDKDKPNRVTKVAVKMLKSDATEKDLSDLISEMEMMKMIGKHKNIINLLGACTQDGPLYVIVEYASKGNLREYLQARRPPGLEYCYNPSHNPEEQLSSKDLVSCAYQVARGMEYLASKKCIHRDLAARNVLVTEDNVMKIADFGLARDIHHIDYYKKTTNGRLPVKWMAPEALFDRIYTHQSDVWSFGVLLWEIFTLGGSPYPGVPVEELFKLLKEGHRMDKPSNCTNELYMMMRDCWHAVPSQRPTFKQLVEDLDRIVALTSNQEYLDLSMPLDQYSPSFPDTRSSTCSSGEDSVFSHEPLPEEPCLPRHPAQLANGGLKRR

T1 sequence (P06239 whole entry, species assumed, the tested form may be a part): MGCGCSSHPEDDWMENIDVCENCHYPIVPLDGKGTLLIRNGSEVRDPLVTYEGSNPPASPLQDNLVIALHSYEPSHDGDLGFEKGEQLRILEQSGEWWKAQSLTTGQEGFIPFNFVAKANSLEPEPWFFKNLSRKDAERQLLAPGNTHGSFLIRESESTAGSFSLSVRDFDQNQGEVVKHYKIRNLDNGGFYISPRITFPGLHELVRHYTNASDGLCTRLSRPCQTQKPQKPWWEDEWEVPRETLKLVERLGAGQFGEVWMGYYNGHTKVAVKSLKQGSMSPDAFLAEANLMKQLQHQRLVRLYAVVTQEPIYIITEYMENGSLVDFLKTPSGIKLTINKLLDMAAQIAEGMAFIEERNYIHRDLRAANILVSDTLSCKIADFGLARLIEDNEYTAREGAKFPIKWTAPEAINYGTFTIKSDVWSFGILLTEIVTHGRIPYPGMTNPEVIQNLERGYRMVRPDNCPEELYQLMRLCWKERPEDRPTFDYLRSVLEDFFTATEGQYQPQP

Row | Structure (SMILES) | IC50 (Lck) [µM] | IC50 (Lyn) [µM] | IC50 (Src) [µM] | IC50 (Fyn) [µM] | IC50 (Zap-70) [µM] | IC50 (Itk) [µM] | IC50 (EGFR) [µM] | IC50 (ErbB2) [µM] | IC50 (Kdr) [µM] | IC50 (Flt-1) [µM] | IC50 (Tek) [µM] | IC50 (c-Met) [µM] | IC50 (AKT) [µM] | IC50 (IGFR-1) [µM] | IC50 (PDGFRB) [µM] | IC50 (Hck-1) [µM] | IC50 (ErbB4) [µM] | IC50 (Ret-1) [µM] | IC50 (FGFR1) [µM]
1 | COc1cc(Nc2ncnc(-n3c(NCc4ccccn4)nc4ccccc43)n2)cc(OC)c1OCCn1ccnn1 [Compound 942] | 4.24 to 6.19 | < 0.707 | > 7.96 | > 7.96 | > 7.96 | > 7.96 | > 7.96 | > 7.96 | < 0.707 | < 0.707 | > 7.96 | > 7.96 | > 7.96 | 4.24 to 6.19 | < 0.707 | > 7.96 | > 7.96 | < 0.707 | < 0.707
2 | COc1cc(Nc2ncnc(Nc3ccc(Br)c4ccccc34)n2)cc(OC)c1OC [Compound 613] | 0.829 to 4.98 | 4.98 to 7.26 | > 9.33 | > 9.33 | > 9.33 | > 9.33 | 0.829 to 4.98 | < 0.829 | 4.98 to 7.26 | > 9.33 | > 9.33 | > 9.33 | > 9.33 | 7.26 to 9.33 | < 0.829 | > 9.33 | 0.829 to 4.98 | 0.829 to 4.98 | 0.829 to 4.98
3 | COc1cc(Nc2ncnc(Nc3cccc4ccccc34)n2)cc(OC)c1OCCN1CCOCC1 [Compound 1041] | < 0.796 | < 0.796 | < 0.796 | 0.796 to 4.78 | > 8.95 | 0.796 to 4.78 | < 0.796 | < 0.796 | < 0.796 | 4.78 to 6.96 | 0.796 to 4.78 | > 8.95 | > 8.95 | 0.796 to 4.78 | < 0.796 | 0.796 to 4.78 | 0.796 to 4.78 | 0.796 to 4.78 | 0.796 to 4.78
4 | COc1cc(Nc2ncnc(-n3c(NCc4ccc([N+](=O)[O-])cc4)nc4ccccc43)n2)cc(OC)c1OC [Compound 952] | 4.54 to 6.62 | < 0.757 | 6.62 to 8.51 | 4.54 to 6.62 | > 8.51 | 6.62 to 8.51 | > 8.51 | 4.54 to 6.62 | < 0.757 | 0.757 to 4.54 | 4.54 to 6.62 | > 8.51 | > 8.51 | 0.757 to 4.54 | 0.757 to 4.54 | 6.62 to 8.51 | > 8.51 | < 0.757 | 0.757 to 4.54
5 | COc1cc(Nc2ncnc(-n3c(=O)[nH]c4ccccc43)n2)cc(OC)c1OCCN1CCOCC1 [Compound 1040] | 0.81 to 4.86 | > 9.12 | 0.81 to 4.86 | 0.81 to 4.86 | > 9.12 | 0.81 to 4.86 | 4.86 to 7.09 | 4.86 to 7.09 | < 0.81 | 0.81 to 4.86 | > 9.12 | > 9.12 | > 9.12 | 7.09 to 9.12 | < 0.81 | > 9.12 | 4.86 to 7.09 | 4.86 to 7.09 | 0.81 to 4.86
6 | COc1cc(Nc2ncnc(-c3cccnc3NC(C)C)n2)cc(OC)c1OC [Compound 1089] | < 1.01 | < 1.01 | 1.01 to 6.05 | 1.01 to 6.05 | > 11.4 | 6.05 to 8.83 | > 11.4 | > 11.4 | < 1.01 | > 11.4 | > 11.4 | > 11.4 | > 11.4 | > 11.4 | < 1.01 | > 11.4 | > 11.4 | < 1.01 | > 11.4
7 | COc1cc(Nc2ncnc(-n3c(NCc4ccc(F)cc4)nc4ccccc43)n2)cc(OC)c1OC [Compound 514] | > 8.97 | > 8.97 | > 8.97 | > 8.97 | > 8.97 | > 8.97 | > 8.97 | > 8.97 | < 0.798 | < 0.798 | > 8.97 | > 8.97 | > 8.97 | > 8.97 | < 0.798 | > 8.97 | > 8.97 | < 0.798 | < 0.798
